Test results as given in patent US5830909A (American Cyanamid Company, priority 1996, dated 1998).
Where a name gives a salt, the structure may show the parent alone.

What was measured:
AII receptor [1] = molecular target: T1, AII receptor (Rattus norvegicus, UniProt P25095); experiment: Displacement of 125I[Sar,Ile]AII binding in rat epididymal fat cell membranes
T1 construct: adipose tissue from the epididymal and retroperitoneal depots is quickly excised; from tissue; host or cells: membranes of collagenase-isolated adipocytes from epididymal and retroperitoneal fat of male Sprague-Dawley rats
T1 sequence (P25095 1-359): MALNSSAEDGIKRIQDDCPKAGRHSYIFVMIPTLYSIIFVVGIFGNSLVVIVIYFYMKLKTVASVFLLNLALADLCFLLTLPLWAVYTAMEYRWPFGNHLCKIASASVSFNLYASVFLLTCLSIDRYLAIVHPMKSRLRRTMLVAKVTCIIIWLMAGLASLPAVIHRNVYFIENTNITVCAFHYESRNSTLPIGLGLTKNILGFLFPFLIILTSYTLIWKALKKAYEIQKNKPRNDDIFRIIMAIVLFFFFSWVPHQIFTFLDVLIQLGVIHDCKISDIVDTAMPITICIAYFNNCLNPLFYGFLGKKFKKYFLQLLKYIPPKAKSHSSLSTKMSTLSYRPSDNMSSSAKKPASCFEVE
Source text: The experimental design involves determining the binding characteristics of adipocyte membranes harvested from two different anatomic sites at three different ages. Male Sprague-Dawley rats (Charles River Laboratories, Wilmington, Mass.) are used at 40, 70 and 100 days of age. Rats are killed by carbon dioxide inhalation on the morning of the experiment, and adipose tissue from the epididymal and retroperitoneal depots is quickly excised and placed in cold saline. The spermatic artery and vein are removed from the epididymal fat, and brown fat deposits are dissected away from the retroperitoneal depot. The adipose tissue is weighed, minced into small pieces, and approximately 10 g each transferred to a flask containing 25 ml of Krebs-Ringer-bicarbonate buffer (KRB), 6 mM glucose and 50 mg of collagenase, pH 7.4. […] Intact adipocytes dissociated from the tissue pass freely into waiting tubes, while the undigested tissue is trapped on the screen. The tubes containing the adipocytes are washed an additional 4× with 20 ml each of cold Tris buffer (10 mM Tris HCl, pH 8.0) by first allowing the adipocytes to separate from the digestion medium by flotation, removing the infranatant through polyethylene tubing attached to a syringe, resuspending the cells in the Tris buffer, and repeating this procedure. Adipocyte membranes used for binding studies are prepared as follows. […] Following centrifugation, the fat cake and supernatant are carefully removed, and the pellet resuspended in 1 ml of Tris buffer. Protein content of the high speed pellet is determined, the resuspended protein is either assayed immediately or stored at -75° before binding assays are performed. […] The assay is initiated by the addition of the membrane protein, followed by incubation at 22° C. for 30 minutes in a slowly shaking water bath. Separation of bound from free radioactivity is achieved using any appropriate filtration apparatus. We use either a Millipore or Brandel model harvesting apparatus containing a Durapore or Whatman GF/B filter, followed by 6 additional rinses with 5 ml each of cold saline. The filters are placed in tubes, and radioactivity measured in a gamma scintillation counter programmed to correct for the half-life of the isotope. Using this experimental protocol, both the affinity (KD) and number of binding sites (Bmax) for angiotensin II on the adipocyte membrane can be calculated. The relative affinities of different anatomically distinct adipocyte membranes for a variety of peptide and nonpeptide antagonists can also be determined. […] Concentration ranges can be altered dependent upon the affinity of the particular antagonist for the fat cell membrane receptor.

[2] = assay type: in vivo, rat; settings: 15 mg/kg once a day by gavage, two weeks; for Avg. Daily Food Intake / Avg. Weight Gain / Epididymal Fat Weight / Final Body Weight / Retroperitoneal Fat Weight: n = 6
Experimental: (§1) Body weight and food intake are monitored daily. At the end of two weeks, the rats are sacrificed and tissues are weighed. Adipocyte membranes are prepared by collagenase digestion, homogenization and centrfugation. […] Of the organs sampled, the combined largest relative and quantitative change in weight was in the adipose tissue.

adipocyte AII receptor = experiment: Epididymal adipocyte AII receptor binding (Bmax) after two weeks oral treatment; assay type: in vivo, rat; settings: 4 rats/group, oral once daily for 2 weeks
Experimental: Body weight and food intake are monitored daily. At the end of two weeks, the rats are sacrificed and tissues are weighed. Adipocyte membranes are prepared by collagenase digestion, homogenization and centrfugation.
Binding is initiated by suspending the adipocyte membranes in 0.25% BSA buffer (bovine serum albumin, 50 mM Tris HCl, 5 mM MgCl2,pH 7.4) to a final concentration of 5 ug protein/10 ul buffer. […] The filters are placed in tubes, and radioactivity measured in a gamma scintillation counter programmed to correct for the half-life of the isotope. Using this experimental protocol, both the affinity (KD) and number of binding sites (Bmax) for angiotensin II on the adipocyte membrane can be calculated.

epididymal adipocytes = experiment: Epididymal adipocyte cell volume after two weeks oral treatment; assay type: in vivo, rat; settings: 4 rats/group, oral once daily for 2 weeks
Experimental: as §1

AII receptor [3] = molecular target: T1, AII receptor; experiment: Displacement of 125I[Sar,Ile]AII binding in rat retroperitoneal fat cell membranes
Source text: The experimental design involves determining the binding characteristics of adipocyte membranes harvested from two different anatomic sites at three different ages. Male Sprague-Dawley rats (Charles River Laboratories, Wilmington, Mass.) are used at 40, 70 and 100 days of age. Rats are killed by carbon dioxide inhalation on the morning of the experiment, and adipose tissue from the epididymal and retroperitoneal depots is quickly excised and placed in cold saline. The spermatic artery and vein are removed from the epididymal fat, and brown fat deposits are dissected away from the retroperitoneal depot. […] Protein content of the high speed pellet is determined, the resuspended protein is either assayed immediately or stored at -75° before binding assays are performed. […] Separation of bound from free radioactivity is achieved using any appropriate filtration apparatus. […] The filters are placed in tubes, and radioactivity measured in a gamma scintillation counter programmed to correct for the half-life of the isotope. Using this experimental protocol, both the affinity (KD) and number of binding sites (Bmax) for angiotensin II on the adipocyte membrane can be calculated. The relative affinities of different anatomically distinct adipocyte membranes for a variety of peptide and nonpeptide antagonists can also be determined. […]

| Compound | IC50 (AII receptor [1]; Epididymal IC50 for displacement of 125I[Sar,Ile]AII binding, rat epididymal fat cell membranes (Table 8)) | Avg. Daily Food Intake, % Change From Control [2] | Avg. Weight Gain, % Change From Control [2] | Epididymal Fat Weight, % Change From Control [2] | Final Body Weight, % Change From Control [2] | Retroperitoneal Fat Weight, % Change From Control [2] | Avg. Daily Food Intake [2] | Avg. Weight Gain [2] | Epididymal Fat Weight [2] | Final Body Weight [2] | Retroperitoneal Fat Weight [2] | Bmax, epididymal adipocyte AII receptor binding (adipocyte AII receptor) | Adipocyte Cell Volume (epididymal adipocytes) | IC50 (AII receptor [1]; Inhibitory Constants (IC50) for displacement of 125I[Sar,Ile]AII binding, Epididymal, rat epididymal fat cell membranes, 1 nM radioligand, 1-4 assays) | IC50 (AII receptor [3]) |
| --- | --- | --- | --- | --- | --- | --- | --- | --- | --- | --- | --- | --- | --- | --- | --- |
| CCCCc1nc2ccc([C@@]3(C)C[C@@H]4CCCN4O3)cc2c(=O)n1Cc1ccc(-c2ccccc2-c2nnn[nH]2)cc1 (racemic) [cis-(+/-)-2-butyl-6-(hexahydro-2-methylpyrrolo[1,2-b]isoxazol-2-yl)-3-[[2'-(1H-tetrazol-5-yl)[1,1-biphenyl]-4-yl]methyl]-4(3H)-quinazolinone sodium salt] | 0.0146 µM | -7% | -55% | -17% | -7% | -11% | 30.4 g | 25 g | 4.33 g | 424 g | 4.35 g | 31.8 fmole/mg protein | 187 p1 |  |  |
| CCCCc1nc(Cl)c(CO)n1Cc1ccc(-c2ccccc2-c2nnn[nH]2)cc1 [2-n-butyl-4-chloro-5-hydroxymethyl-1-[(2'-(1H-tetrazol-5-yl)biphenyl-4-yl)methyl]imidazole, reference compound] |  | -8% | -38% | -21% | -5% | -16% | 30.1 g | 35 g | 4.10 g | 431 g | 4.10 g | 24.7 fmole/mg protein | 163 p1 |  |  |
| Cc1cc(Cn2cnc3c2C[C@@H](C(=O)O)N(C(=O)C(c2ccccc2)c2ccccc2)C3)ccc1N(C)C [((S)-)-[[4-(di-methylamino)-3-methylphenyl]methyl-5-(diphenylacetyl)-4,5,6,7-tetrahydro-1H-imidazo[4,5-c]-pyridine-6-carboxylic acid, reference compound] |  |  |  |  |  |  |  |  |  |  |  |  |  | 173 µM | 242 µM |
